Results reported in EPA's ToxValDB 9.5 (doi:10.2903/j.efsa.2013.3131).

Key:
[1] = tested on: Neomysis kadiakensis; conditions: acute; duration: 96 hours; mortality
[2] = tested on: Pimephales promelas; conditions: chronic/long-term; duration: 34 days; other
[3] = tested on: Colinus virginianus
[4] = tested on: Apis mellifera; conditions: acute, mortality
[5] = tested on: Pleurozium sp.; conditions: acute; duration: 96 hours; biomass
[6] = tested on: Rattus norvegicus; conditions: for LD50: acute, oral, mortality
[7] = tested on: Tagia sp.
[8] = tested on: Landoltia sp.; conditions: chronic/long-term; duration: 7 days; biomass
[9] = tested on: Daphnia magna; conditions: chronic/long-term; duration: 21 days; reproduction
[10] = tested on: Oryctolagus sp.; conditions: reproduction developmental; body weight
[11] = tested on: Oncorhynchus mykiss; conditions: acute; duration: 96 hours; mortality
[12] = tested on: Bibionidae; conditions: chronic/long-term; other

SMILES | NOEC [1] [mg/L] | NOEC [2] [mg/L] | LC50 ([3]; acute, oral, diet, mortality) [mg/kg-day] | LD50 ([3]; acute, oral, mortality) [mg/kg-day] | NOEC ([3]; reproduction developmental) [mg/kg-day] | LD50 ([4]; dermal) [µg/piece] | LD50 ([4]; oral, unspecified) [µg/piece] | NOEC [5] [mg/L] | LD50 [6] [mg/kg-day] | NOAEL ([6]; chronic, clinical signs) [mg/kg-day] | NOAEL ([6]; chronic, duration: 2 years, F, ophthalmoscopic examination) [mg/kg-day] | NOAEL ([6]; subchronic, duration: 90 days, ophthalmoscopic examination) [mg/kg-day] | LC50 ([7]; acute, duration: 14 days, mortality) [mg/kg] | NOEC ([7]; chronic/long-term, duration: 28 days, reproduction) [mg/kg] | NOEC [8] [mg/L] | NOEC [9] [mg/L] | NOAEL [10] [mg/kg-day] | NOEC [11] [mg/L] | NOEC [12] [mg/L] | NOAEL ([6]; subchronic, duration: 90 days) [mg/kg-day]
CS(=O)(=O)c1ccc(C(=O)C2C(=O)CCCC2=O)c(Cl)c1COCC(F)(F)F [Tembotrione] | 0.046 | 0.604 | > 1790 | > 2250 | 22.2 | > 100 | > 92.8 | 0.2 | > 2000 | 0.8 | 0.04 | 0.07 | 1000 | 1.25 | 0.0032 | 5 | 1 | 100 | 2 | –
CS(=O)(=O)c1ccc(C(=O)C2C(=O)C(O)CC(O)C2=O)c(Cl)c1COCC(F)(F)F (configuration not stated) | – | – | – | – | – | – | – | – | > 2000 | – | – | – | – | – | – | – | 1 | – | – | 12.7
